Data on 16 molecules can be found in the supplement of paper PMC4649846.

The subject of assay [1] is MDA-MB-231. In words: drug sensitivity score (DSS); higher = more sensitive; extreme values may be limits of the assay. As to conditions: incubation time: 72 h. In a few lines:
(§1)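 For the IC50 and drug sensitivity score, logistic dose–response curves were fitted in Dotmatics Studies. The score compares curve area with a reference area and is normalised by log of top response. Input data were CellTiter-Blue fluorescence readings from MDA-MB-231 cells, transfected a day earlier with BRCA1 or non-targeting control siRNA, that had spent 72 h at 37 °C and 5% CO2 at 4000 cells per well in 384-well plates with compounds at 5 concentrations.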

Assay [2] deals with MDA-MB-231. Conditions: incubation time: 72 h. In a few lines: as §1
The mark [3] stands for this setting: siRNA: siControl (non-targeting).

On to `CC[C@H](CO)Nc1nc(NCc2ccccc2)c2ncn(C(C)C)c2n1` [Roscovitine], for which the drug sensitivity score with MDA-MB-231 [1] (siRNA: siBRCA1) was 2.37; in the assay on MDA-MB-231 [1] (setting [3]), 0. The “IC50 of cell viability” value in the assay with MDA-MB-231 [2] (siRNA: siBRCA1) and in the assay on MDA-MB-231 [2] (setting [3]) was more than 4.17 µM each time.

Consider `N#CC[C@H](C1CCCC1)n1cc(-c2ncnc3[nH]ccc23)cn1` [Ruxolitinib], for which the drug sensitivity score in the assay with MDA-MB-231 [1] (siRNA: siBRCA1) and in the assay with MDA-MB-231 [1] (setting [3]) was 0 in each case. For the same molecule, the “IC50 of cell viability” value in the assay on MDA-MB-231 [2] (siRNA: siBRCA1) and in the assay with MDA-MB-231 [2] (setting [3]) was more than 4.17 µM in each case.

Consider `N[C@@H](CSC(c1ccccc1)(c1ccccc1)c1ccccc1)C(=O)O` [S-trityl-L-cysteine], for which the drug sensitivity score turned out to be 15.2 in the assay on MDA-MB-231 [1] (siRNA: siBRCA1) and 15.6 in the assay on MDA-MB-231 [1] (setting [3]). The entries for the “IC50 of cell viability” value with MDA-MB-231 [2] (siRNA: siBRCA1) and with MDA-MB-231 [2] (setting [3]) were 0.929 µM and 0.713 µM, respectively.

As for `CC(C)(C)c1cnc(CSc2cnc(NC(=O)C3CCNCC3)s2)o1` [SNS-032], the drug sensitivity score with MDA-MB-231 [1] (siRNA: siBRCA1) stood at 23.9; in the assay with MDA-MB-231 [1] (setting [3]) it was 27.6. Besides, the figures for the “IC50 of cell viability” value in the assay on MDA-MB-231 [2] (siRNA: siBRCA1) and in the assay on MDA-MB-231 [2] (setting [3]) were 0.0531 µM and 0.0301 µM, respectively.

As to `CN1CCN(CCOc2cc(OC3CCOCC3)c3c(Nc4c(Cl)ccc5c4OCO5)ncnc3c2)CC1` [Saracatinib], the drug sensitivity score is 6.55 with MDA-MB-231 [1] (siRNA: siBRCA1) and 10.4 with MDA-MB-231 [1] (setting [3]). The “IC50 of cell viability” value in the assay on MDA-MB-231 [2] (siRNA: siBRCA1) came out at 0.652 µM; in the assay on MDA-MB-231 [2] (setting [3]), 0.0905 µM.

As for `Cn1cnc2c(F)c(Nc3ccc(Br)cc3Cl)c(C(=O)NOCCO)cc21` [Selumetinib], the drug sensitivity score with MDA-MB-231 [1] (siRNA: siBRCA1) is 10.3; with MDA-MB-231 [1] (setting [3]), 10.7. Also, the “IC50 of cell viability” value in the assay with MDA-MB-231 [2] (siRNA: siBRCA1) was 0.61 µM; with MDA-MB-231 [2] (setting [3]), 0.297 µM.

As to `c1ccc2c(CCNc3ccc(Nc4ccncc4)cc3)c[nH]c2c1` [Serdemetan], the drug sensitivity score came to 4.84 in the assay with MDA-MB-231 [1] (siRNA: siBRCA1) and 6.59 in the assay with MDA-MB-231 [1] (setting [3]). Moreover, the “IC50 of cell viability” value was more than 4.17 µM with MDA-MB-231 [2] (siRNA: siBRCA1) and 2.56 µM in the assay with MDA-MB-231 [2] (setting [3]).

For the molecule `CNC(=O)c1cc(Oc2ccc(NC(=O)Nc3ccc(Cl)c(C(F)(F)F)c3)cc2)ccn1` [Sorafenib], the values for the drug sensitivity score in the assay on MDA-MB-231 [1] (siRNA: siBRCA1) and in the assay with MDA-MB-231 [1] (setting [3]) were 5.25 and 4.57, respectively. Moreover, the entries for the “IC50 of cell viability” value in the assay on MDA-MB-231 [2] (siRNA: siBRCA1) and in the assay on MDA-MB-231 [2] (setting [3]) were 2.95 µM and 3.5 µM, respectively.

Turning to `CN1CCN(c2nc(C3=C(c4c[nH]c5ccccc45)C(=O)NC3=O)c3ccccc3n2)CC1` [Sotrastaurin], the drug sensitivity score in the assay with MDA-MB-231 [1] (siRNA: siBRCA1) and in the assay on MDA-MB-231 [1] (setting [3]) was 0 each time. In addition, the “IC50 of cell viability” value in the assay on MDA-MB-231 [2] (siRNA: siBRCA1) and with MDA-MB-231 [2] (setting [3]) was more than 4.17 µM throughout.

Consider `CN(N=O)C(=O)N[C@@H](C=O)[C@@H](O)[C@H](O)[C@H](O)CO` [Streptozocin], for which the drug sensitivity score in the assay on MDA-MB-231 [1] (siRNA: siBRCA1) and in the assay on MDA-MB-231 [1] (setting [3]) was 0 throughout. Moreover, the “IC50 of cell viability” value in the assay on MDA-MB-231 [2] (siRNA: siBRCA1) and with MDA-MB-231 [2] (setting [3]) was more than 4.17 µM throughout.

As for `CCN(CC)CCNC(=O)c1c(C)[nH]c(/C=C2\C(=O)Nc3ccc(F)cc32)c1C` [Sunitinib], the drug sensitivity score in the assay with MDA-MB-231 [1] (siRNA: siBRCA1) was determined as 5.44; in the assay with MDA-MB-231 [1] (setting [3]) it was 4.28. For the same molecule, the “IC50 of cell viability” value with MDA-MB-231 [2] (siRNA: siBRCA1) turned out to be 2.77 µM; in the assay on MDA-MB-231 [2] (setting [3]), 3.52 µM.

In the case of `C=CC[C@@H]1/C=C(\C)C[C@H](C)C[C@H](OC)[C@H]2O[C@@](O)(C(=O)C(=O)N3CCCC[C@H]3C(=O)O[C@H](/C(C)=C/[C@@H]3CC[C@@H](O)[C@H](OC)C3)[C@H](C)[C@@H](O)CC1=O)[C@H](C)C[C@@H]2OC` [Tacrolimus], the drug sensitivity score in the assay with MDA-MB-231 [1] (siRNA: siBRCA1) and with MDA-MB-231 [1] (setting [3]) was 0 throughout. Also, the “IC50 of cell viability” value with MDA-MB-231 [2] (siRNA: siBRCA1) and with MDA-MB-231 [2] (setting [3]) was more than 4.17 µM in each case.

For the molecule `CC/C(=C(\c1ccccc1)c1ccc(OCCN(C)C)cc1)c1ccccc1` [Tamoxifen], the drug sensitivity score in the assay on MDA-MB-231 [1] (siRNA: siBRCA1) and with MDA-MB-231 [1] (setting [3]) was 0 throughout. Moreover, the “IC50 of cell viability” value in the assay on MDA-MB-231 [2] (siRNA: siBRCA1) and in the assay with MDA-MB-231 [2] (setting [3]) was more than 4.17 µM in each case.

`COc1cc2c(N3CCN(C(=O)Nc4ccc(OC(C)C)cc4)CC3)ncnc2cc1OCCCN1CCCCC1` [Tandutinib]: the drug sensitivity score was 0.708 in the assay on MDA-MB-231 [1] (siRNA: siBRCA1) and 3.18 in the assay on MDA-MB-231 [1] (setting [3]). For the same molecule, the figures for the “IC50 of cell viability” value in the assay with MDA-MB-231 [2] (siRNA: siBRCA1) and in the assay with MDA-MB-231 [2] (setting [3]) were more than 4.17 µM and 1.13 µM, respectively.

As for `C=CCNC1=C2C[C@@H](C)C[C@H](OC)[C@H](O)[C@@H](C)/C=C(\C)[C@H](OC(N)=O)[C@@H](OC)/C=C\C=C(/C)C(=O)NC(=CC1=O)C2=O` [Tanespimycin], the drug sensitivity score in the assay with MDA-MB-231 [1] (siRNA: siBRCA1) is 15.1; in the assay with MDA-MB-231 [1] (setting [3]), 17.3. Besides, the “IC50 of cell viability” value in the assay with MDA-MB-231 [2] (siRNA: siBRCA1) was found to be 0.377 µM; in the assay with MDA-MB-231 [2] (setting [3]) it was 0.233 µM.

Turning to `C[C@@H](C(=O)O)c1ccc(-c2ccccc2)c(F)c1` [Tarenflurbil], the drug sensitivity score in the assay on MDA-MB-231 [1] (siRNA: siBRCA1) and in the assay on MDA-MB-231 [1] (setting [3]) was 0 in each case. The “IC50 of cell viability” value in the assay with MDA-MB-231 [2] (siRNA: siBRCA1) and with MDA-MB-231 [2] (setting [3]) was more than 4.17 µM each time.
